Literature values, collected in patent US12263157B2, “Aldosterone synthase inhibitors for treating chronic kidney disease” (Boehringer Ingelheim International GmbH, priority 2021, dated 2025).

Key:
[1] = test system: patients with diabetic kidney disease; conditions: on top of standard of care
[2] = test system: patients with heart failure with reduced ejection fraction; conditions: overall trial population
[3] = test system: people with type 2 diabetes

Structure (SMILES)	relative risk reduction for the composite endpoint of doubling of serum creatinine, ESRD or renal/CV death [1]	reduction of the risk of the exploratory composite renal endpoint (chronic dialysis, kidney transplant, or sustained reduction in eGFR) [2]	HR for the composite outcome of doubling of creatinine, the need to start kidney replacement therapy, or renal death ([3]; exploratory analysis, 95% CI 0.40-0.75)	reduction of the incidence of the composite outcome of doubling of creatinine, the need to start kidney replacement therapy, or renal death ([3]; exploratory analysis, people with type 2 diabetes)	risk of hyperkalaemia or acute kidney injury ([3]; regardless of baseline ACEi or ARB use)
Cc1ccc([C@@H]2O[C@H](CO)[C@@H](O)[C@H](O)[C@H]2O)cc1Cc1ccc(-c2ccc(F)cc2)s1 [canagliflozin]	30%				
OC[C@H]1O[C@@H](c2ccc(Cl)c(Cc3ccc(O[C@H]4CCOC4)cc3)c2)[C@H](O)[C@@H](O)[C@@H]1O [empagliflozin]		50%	0.54	46%	no evidence of an increased risk
